The values below come from patent US8722849B2, “Polypeptides” (Novo Nordisk A/S, priority 2011, dated 2014).

Data set [1] is described as follows: Assay (III) ThT fibrillation assay for physical stability. In kind it is physicochemical. An outline of the steps: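 Freshly prepared formulations, pH-adjusted, with 1 μM ThT; four or eight replicates incubated at 37 °C under 960 rpm orbital shaking. Fluorescence (ex 444/em 485 nm) read every 20 min; […]. Peptide concentration measured by RP-HPLC before and after the run.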

In data set [2] the target is T1, rat amylin 3(a) receptor (rat calcitonin(a) receptor + rat RAMP3) (Rattus norvegicus, UniProt P32214+Q9JJ73).
T1 construct: expressed in transfected cells; host or cells: BHK tk'ts 13
T1 sequence (P32214 25-479 isoform P32214-2 limits assumed): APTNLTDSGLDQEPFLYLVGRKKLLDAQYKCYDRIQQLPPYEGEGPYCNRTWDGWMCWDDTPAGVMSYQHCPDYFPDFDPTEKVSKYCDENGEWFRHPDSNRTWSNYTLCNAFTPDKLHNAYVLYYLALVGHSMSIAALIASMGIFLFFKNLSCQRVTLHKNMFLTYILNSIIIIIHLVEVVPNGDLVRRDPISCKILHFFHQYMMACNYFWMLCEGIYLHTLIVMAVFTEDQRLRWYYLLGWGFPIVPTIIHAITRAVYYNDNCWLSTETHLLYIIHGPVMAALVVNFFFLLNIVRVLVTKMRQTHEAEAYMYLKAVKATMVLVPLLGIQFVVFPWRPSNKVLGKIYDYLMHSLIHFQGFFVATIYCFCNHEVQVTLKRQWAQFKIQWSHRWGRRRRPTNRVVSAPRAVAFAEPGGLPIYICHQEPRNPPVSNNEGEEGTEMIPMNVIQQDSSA
T1 sequence (Q9JJ73 23-147 partner): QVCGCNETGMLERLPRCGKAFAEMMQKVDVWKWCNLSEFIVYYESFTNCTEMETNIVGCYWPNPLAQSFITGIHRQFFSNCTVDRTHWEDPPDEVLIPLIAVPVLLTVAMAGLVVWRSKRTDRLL
As to the kind of experiment: Assay (II)b functional cAMP FlashPlate assay, rat amylin receptor. The format is cell-based. As to conditions: Table 11. The procedure, abridged:
(§1)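 cAMP accumulation in transiently transfected BHK tk'ts 13 cells, 100.000 cells/well, expressing rat calcitonin(a) receptor or its RAMP3 co-expression form (amylin 3(a)): 30 min stimulation with IBMX, 24 hours post-transfection. Readout by competition of cellular versus radiolabelled cAMP in FlashPlates, scintillation counted after 3 h.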

Data set [3] addresses T2, rat calcitonin (a) receptor (Rattus norvegicus, UniProt P32214).
T2 construct: expressed in transfected cells; host or cells: BHK tk'ts 13
T2 sequence (P32214 25-479 isoform P32214-2 limits assumed): T1 sequence (P32214 25-479 isoform P32214-2 limits assumed)
As to the kind of experiment: Assay (II)b functional cAMP FlashPlate assay, rat calcitonin receptor. As to conditions: Table 11; read-out: CTa receptor rat EC50. In kind it is cell-based. The procedure, abridged:
as §1

Starred links: 1 amine or outer side, 2 acyl side, 3 side chain; linkers in the order of their positions; H or OH if unused. Positions of bridges follow the written chain, without caps; N, C: chain ends. Residues, ends and D or L forms follow the SMILES beside them. *: point of attachment. C20 diacid = O=C(O)CCCCCCCCCCCCCCCCCCC(=O)*; γGlu = O=C(O)[C@H](CCC(=O)[*:2])N[*:1]

Turning to `CC[C@H](C)[C@H](NC(=O)[C@@H]1CCCN1C(=O)CNC(=O)[C@H](Cc1ccccc1)NC(=O)[C@H](CC(N)=O)NC(=O)[C@H](CC(N)=O)NC(=O)[C@H](CO)NC(=O)[C@H](CO)NC(=O)[C@H](Cc1c[nH]cn1)NC(=O)[C@H](Cc1c[nH]cn1)NC(=O)[C@H](CC(C)C)NC(=O)[C@H](Cc1ccccc1)NC(=O)[C@H](CCC(=O)O)NC(=O)[C@H](C)NC(=O)[C@H](CC(C)C)NC(=O)[C@H](CCCNC(=N)N)NC(=O)[C@H](CCC(N)=O)NC(=O)[C@@H](NC(=O)[C@H](C)NC(=O)[C@@H]1CSSC[C@H](NC(=O)[C@H](CCCCN)NC(=O)CC[C@H](NC(=O)CCCCCCCCCCCCCCCCCCC(=O)O)C(=O)O)C(=O)N[C@@H](CC(N)=O)C(=O)N[C@@H]([C@@H](C)O)C(=O)N[C@@H](C)C(=O)N[C@@H]([C@@H](C)O)C(=O)N1)[C@@H](C)O)C(=O)N[C@@H](CC(C)C)C(=O)N1CCC[C@H]1C(=O)N1CCC[C@H]1C(=O)N[C@H](C(=O)N[C@@H](CC(N)=O)C(=O)N[C@H](C(=O)NCC(=O)N[C@@H](CO)C(=O)N[C@@H](CC(N)=O)C(=O)N[C@H](C(=O)N[C@@H](Cc1ccc(O)cc1)C(N)=O)[C@@H](C)O)C(C)C)[C@@H](C)O` [Example 27, N-alpha-[(S)-4-Carboxy-4-(19-carboxynonadecanoylamino)butyryl]-[Glu14,His17]-pramlintide] ({C20 diacid-γGlu}-KCNTATCATQRLAEFLHHSSNNFGPILPPTNVGSNTY-NH2; disulfide 2-7 (inferred)), the “ThT pH 4.0 lag time (h)” value in data set [1] (ThT fibrillation assay) came out at 12.3 h. Further, the EC50 – broadly, the concentration needed to bring the measured effect to its halfway point – stood at 0.188 nM in data set [2] and 0.539 nM in data set [3].

Take `CC[C@H](C)[C@H](NC(=O)[C@@H]1CCCN1C(=O)CNC(=O)[C@H](Cc1ccccc1)NC(=O)[C@H](CC(N)=O)NC(=O)[C@H](CC(N)=O)NC(=O)[C@H](CO)NC(=O)[C@H](CO)NC(=O)[C@H](Cc1c[nH]cn1)NC(=O)[C@@H](NC(=O)[C@H](CC(C)C)NC(=O)[C@H](Cc1ccccc1)NC(=O)[C@H](CCC(=O)O)NC(=O)[C@H](C)NC(=O)[C@H](CC(C)C)NC(=O)[C@H](CCCNC(=N)N)NC(=O)[C@H](CCC(N)=O)NC(=O)[C@@H](NC(=O)[C@H](C)NC(=O)[C@@H]1CSSC[C@H](NC(=O)[C@H](CCCCN)NC(=O)CC[C@H](NC(=O)CCCCCCCCCCCCCCCCCCC(=O)O)C(=O)O)C(=O)N[C@@H](CC(N)=O)C(=O)N[C@@H]([C@@H](C)O)C(=O)N[C@@H](C)C(=O)N[C@@H]([C@@H](C)O)C(=O)N1)[C@@H](C)O)C(C)C)C(=O)N[C@@H](CC(C)C)C(=O)N1CCC[C@H]1C(=O)N1CCC[C@H]1C(=O)N[C@H](C(=O)N[C@@H](CC(N)=O)C(=O)N[C@H](C(=O)NCC(=O)N[C@@H](CO)C(=O)N[C@@H](Cc1c[nH]cn1)C(=O)N[C@H](C(=O)N[C@@H](Cc1ccc(O)cc1)C(N)=O)[C@@H](C)O)C(C)C)[C@@H](C)O` [Example 93, N-alpha-[(S)-4-Carboxy-4-(19-carboxynonadecanoylamino)butyryl]-[Glu14,His35]-pramlintide] ({C20 diacid-γGlu}-KCNTATCATQRLAEFLVHSSNNFGPILPPTNVGSHTY-NH2; disulfide 2-7 (inferred); C-terminus assumed): the “ThT pH 4.0 lag time (h)” value in data set [1] (ThT fibrillation assay) amounted to 19 h. In addition, the concentration giving a half-maximal response (EC50) in data set [2] was determined as 0.138 nM; in data set [3] it was 0.215 nM.

On to `CC[C@H](C)[C@H](NC(=O)[C@@H]1CCCN1C(=O)CNC(=O)[C@H](Cc1ccccc1)NC(=O)[C@H](CC(N)=O)NC(=O)[C@H](CC(N)=O)NC(=O)[C@H](CO)NC(=O)[C@H](CO)NC(=O)[C@H](Cc1c[nH]cn1)NC(=O)[C@H](Cc1c[nH]cn1)NC(=O)[C@H](CC(C)C)NC(=O)[C@H](Cc1ccccc1)NC(=O)[C@H](CCC(=O)O)NC(=O)[C@H](C)NC(=O)[C@H](CC(C)C)NC(=O)[C@H](CCCNC(=N)N)NC(=O)[C@H](CCC(N)=O)NC(=O)[C@@H](NC(=O)[C@H](C)NC(=O)[C@@H]1CSSC[C@H](NC(=O)[C@H](CCCCN)NC(=O)[C@H](CCC(=O)O)NC(=O)CC[C@H](NC(=O)CCCCCCCCCCCCCCCCCCC(=O)O)C(=O)O)C(=O)N[C@@H](CC(N)=O)C(=O)N[C@@H]([C@@H](C)O)C(=O)N[C@@H](C)C(=O)N[C@@H]([C@@H](C)O)C(=O)N1)[C@@H](C)O)C(=O)N[C@@H](CC(C)C)C(=O)N1CCC[C@H]1C(=O)N1CCC[C@H]1C(=O)N[C@H](C(=O)N[C@@H](CC(N)=O)C(=O)N[C@H](C(=O)NCC(=O)N[C@@H](CO)C(=O)N[C@@H](CC(N)=O)C(=O)N[C@H](C(=O)N[C@@H](Cc1ccc(O)cc1)C(N)=O)[C@@H](C)O)C(C)C)[C@@H](C)O` [Example 26, N-alpha-[(S)-4-Carboxy-4-(19-carboxynonadecanoylamino)butyryl]-Glu-[Glu14,His17]-pramlintide] ({C20 diacid-γGlu}-EKCNTATCATQRLAEFLHHSSNNFGPILPPTNVGSNTY-NH2; disulfide 3-8 (inferred); C-terminus assumed), for which the “ThT pH 4.0 lag time (h)” value in data set [1] (ThT fibrillation assay) stood at 2 h. In addition, the EC50 turned out to be 0.476 nM in data set [2] and 1.39 nM in data set [3].

With `CC[C@H](C)[C@H](NC(=O)[C@@H]1CCCN1C(=O)CNC(=O)[C@H](Cc1ccccc1)NC(=O)[C@H](CC(N)=O)NC(=O)[C@H](CC(N)=O)NC(=O)[C@H](CO)NC(=O)[C@H](CO)NC(=O)[C@H](Cc1c[nH]cn1)NC(=O)[C@H](Cc1c[nH]cn1)NC(=O)[C@H](CC(C)C)NC(=O)[C@H](Cc1ccccc1)NC(=O)[C@H](CCC(=O)O)NC(=O)[C@H](C)NC(=O)[C@H](CC(C)C)NC(=O)[C@H](CCCNC(=N)N)NC(=O)[C@H](CCC(N)=O)NC(=O)[C@@H](NC(=O)[C@H](C)NC(=O)[C@@H]1CSSC[C@H](NC(=O)[C@H](CCCNC(=N)N)NC(=O)CC[C@H](NC(=O)CCCCCCCCCCCCCCCCCCC(=O)O)C(=O)O)C(=O)N[C@@H](CC(N)=O)C(=O)N[C@@H]([C@@H](C)O)C(=O)N[C@@H](C)C(=O)N[C@@H]([C@@H](C)O)C(=O)N1)[C@@H](C)O)C(=O)N[C@@H](CC(C)C)C(=O)N1CCC[C@H]1C(=O)N1CCC[C@H]1C(=O)N[C@H](C(=O)N[C@@H](CC(N)=O)C(=O)N[C@H](C(=O)NCC(=O)N[C@@H](CO)C(=O)N[C@@H](CC(N)=O)C(=O)N[C@H](C(=O)N1CCC[C@H]1C(N)=O)[C@@H](C)O)C(C)C)[C@@H](C)O` [Example 96, N-alpha-[(S)-4-Carboxy-4-(19-carboxynonadecanoylamino)butyryl]-[Arg1,Glu14,His17,Pro37]-pramlintide] ({C20 diacid-γGlu}-RCNTATCATQRLAEFLHHSSNNFGPILPPTNVGSNTP-NH2; disulfide 2-7 (inferred)), the “ThT pH 4.0 lag time” value in data set [1] (Table 8), in data set [1] (Table 9) and in data set [1] (ThT fibrillation assay) was >45 h throughout. Also, the “ThT pH 4.0 lag time (h)” value in data set [1] (ThT fibrillation assay) is recorded as >45 h. For the same compound, the results for the EC50 in data set [2] and in data set [3] were 0.088 nM and 0.058 nM, respectively.

For `CC[C@H](C)[C@H](NC(=O)[C@@H]1CCCN1C(=O)CNC(=O)[C@H](Cc1ccccc1)NC(=O)[C@H](CC(N)=O)NC(=O)[C@H](CC(N)=O)NC(=O)[C@H](CO)NC(=O)[C@H](CO)NC(=O)[C@H](Cc1c[nH]cn1)NC(=O)[C@H](Cc1c[nH]cn1)NC(=O)[C@H](CC(C)C)NC(=O)[C@H](Cc1ccccc1)NC(=O)[C@H](CCC(=O)O)NC(=O)[C@H](C)NC(=O)[C@H](CC(C)C)NC(=O)[C@H](CCCNC(=N)N)NC(=O)[C@H](CCC(N)=O)NC(=O)[C@@H](NC(=O)[C@H](C)NC(=O)[C@@H]1CSSC[C@H](NC(=O)[C@H](CCCCN)NC(=O)[C@H](CCC(=O)O)NC(=O)CC[C@H](NC(=O)CCCCCCCCCCCCCCCCCCC(=O)O)C(=O)O)C(=O)N[C@@H](CC(N)=O)C(=O)N[C@@H]([C@@H](C)O)C(=O)N[C@@H](C)C(=O)N[C@@H]([C@@H](C)O)C(=O)N1)[C@@H](C)O)C(=O)N[C@@H](CC(C)C)C(=O)N1CCC[C@H]1C(=O)N1CCC[C@H]1C(=O)N[C@H](C(=O)N[C@@H](CC(N)=O)C(=O)N[C@H](C(=O)NCC(=O)N[C@@H](CO)C(=O)N[C@@H](Cc1c[nH]cn1)C(=O)N[C@H](C(=O)N[C@@H](Cc1ccc(O)cc1)C(N)=O)[C@@H](C)O)C(C)C)[C@@H](C)O` [Example 56, N-alpha-[(S)-4-Carboxy-4-(19-carboxynonadecanoylamino)butyryl]-Glu-[Glu14,His17,His35]-pramlintide] ({C20 diacid-γGlu}-EKCNTATCATQRLAEFLHHSSNNFGPILPPTNVGSHTY-NH2; disulfide 3-8 (inferred)), in data set [1] (ThT fibrillation assay), the “ThT pH 4.0 lag time (h)” value is 16 h. For the same compound, the values for the EC50 in data set [2] and in data set [3] were 0.643 nM and 4.97 nM, respectively.
